Results on 39 compounds are retold here after patent publication US20200291018A1, “TAM KINASE INHIBITORS” (SYROS PHARMACEUTICALS, INC., priority 2017, published 2020).

For assay [1], the target named is T1, TYRO3 (Homo sapiens, UniProt Q06418).
T1 sequence (Q06418 41-890): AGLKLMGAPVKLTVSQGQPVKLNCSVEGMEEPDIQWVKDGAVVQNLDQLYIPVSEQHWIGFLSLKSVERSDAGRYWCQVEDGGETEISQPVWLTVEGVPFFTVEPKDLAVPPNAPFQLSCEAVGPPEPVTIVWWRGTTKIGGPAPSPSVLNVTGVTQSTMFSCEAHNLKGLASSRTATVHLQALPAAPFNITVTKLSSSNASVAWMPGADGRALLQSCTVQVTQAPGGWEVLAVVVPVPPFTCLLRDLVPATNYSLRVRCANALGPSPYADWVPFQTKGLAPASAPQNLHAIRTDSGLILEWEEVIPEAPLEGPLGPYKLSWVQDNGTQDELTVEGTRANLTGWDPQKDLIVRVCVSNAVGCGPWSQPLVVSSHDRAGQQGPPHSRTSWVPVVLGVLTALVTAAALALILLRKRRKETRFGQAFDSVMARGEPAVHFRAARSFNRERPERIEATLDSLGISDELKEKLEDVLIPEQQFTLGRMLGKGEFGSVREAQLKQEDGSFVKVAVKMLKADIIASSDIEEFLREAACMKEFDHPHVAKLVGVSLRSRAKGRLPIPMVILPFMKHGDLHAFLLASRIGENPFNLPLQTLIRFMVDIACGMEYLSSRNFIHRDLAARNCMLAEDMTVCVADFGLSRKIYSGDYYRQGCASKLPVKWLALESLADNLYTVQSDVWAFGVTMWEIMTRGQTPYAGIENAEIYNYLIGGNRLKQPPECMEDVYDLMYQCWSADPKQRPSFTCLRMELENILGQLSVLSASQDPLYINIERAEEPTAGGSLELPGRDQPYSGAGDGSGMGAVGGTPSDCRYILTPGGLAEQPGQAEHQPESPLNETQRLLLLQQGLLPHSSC
The assay is described as follows: TR-FRET kinase activity assay, TYRO3. The class given is biochemical. The settings on record: ATP at Km, 60 minutes. Summed up:
(§1)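 TR-FRET signal from Eu-labeled phospho-site antibody bound to tyrosine-phosphorylated fluorescent peptide; inhibition lowers signal, giving IC50. Reactions: 50 mM HEPES pH 7.5, 10 mM MgCl2, 1 mM EGTA, 0.01% Brij 35, 1 mM DTT, ATP at Km per enzyme, 60 min, RT.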
For orientation: TR-FRET usually uses a lanthanide donor and a delayed reading to cut background.

Assay [2] concerns the target T2, AXL (Homo sapiens, UniProt P30530).
T2 sequence (P30530 26-894): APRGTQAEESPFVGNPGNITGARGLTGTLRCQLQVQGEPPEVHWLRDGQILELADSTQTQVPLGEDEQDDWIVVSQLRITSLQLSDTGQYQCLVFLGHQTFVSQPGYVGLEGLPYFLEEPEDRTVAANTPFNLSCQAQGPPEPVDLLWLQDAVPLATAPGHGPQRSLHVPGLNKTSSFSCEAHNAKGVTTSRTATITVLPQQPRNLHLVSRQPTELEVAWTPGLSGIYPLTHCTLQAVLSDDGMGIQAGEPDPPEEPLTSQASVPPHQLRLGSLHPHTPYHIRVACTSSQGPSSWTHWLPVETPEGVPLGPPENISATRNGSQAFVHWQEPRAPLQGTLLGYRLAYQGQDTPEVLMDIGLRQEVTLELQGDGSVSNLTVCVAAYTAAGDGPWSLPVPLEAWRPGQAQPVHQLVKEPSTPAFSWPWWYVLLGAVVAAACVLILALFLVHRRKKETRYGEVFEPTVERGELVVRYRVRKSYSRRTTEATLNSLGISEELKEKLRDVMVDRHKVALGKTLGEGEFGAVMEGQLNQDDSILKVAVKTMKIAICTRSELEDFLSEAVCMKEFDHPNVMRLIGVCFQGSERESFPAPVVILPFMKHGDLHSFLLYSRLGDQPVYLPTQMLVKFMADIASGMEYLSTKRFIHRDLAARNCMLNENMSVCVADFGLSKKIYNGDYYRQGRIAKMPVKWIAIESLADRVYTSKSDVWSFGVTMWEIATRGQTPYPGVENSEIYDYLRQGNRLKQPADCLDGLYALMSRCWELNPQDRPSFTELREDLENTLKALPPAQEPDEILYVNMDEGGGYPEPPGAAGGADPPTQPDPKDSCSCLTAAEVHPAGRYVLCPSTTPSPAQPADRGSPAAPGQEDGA
The assay is described as follows: TR-FRET kinase activity assay, AXL. The class given is biochemical. As to conditions: ATP at Km, 60 minutes. In outline:
as §1

Each structure is given as a SMILES string.

Regarding `C[C@@H](CCF)Nc1ncc2c(OC3CCOCC3)ncc([C@H]3CC[C@H](O)CC3)c2n1` [Compound 311], the 50% inhibitory concentration (IC50) (as a rule, the concentration at which inhibition is half-maximal) in assay [1] is at most 0.1 µM; in assay [2], 0.1 to 1 µM.

As for `COCC[C@H](C)Nc1ncc2c(OC3CCOCC3)ncc([C@H]3CC[C@H](O)CC3)c2n1` [Compound 312], the values for the IC50 in assay [1] and in assay [2] were 0.1 to 1 µM and 1 to 10 µM, respectively.

Take `CC(C)Nc1ncc2c(OC3CCOCC3)ncc(-c3cccc(S(C)(=O)=O)c3)c2n1` [Compound 313]: the concentration for half-maximal inhibition (IC50) in assay [1] and in assay [2] was 0.1 to 1 µM in each case.

As to `COC[C@H](C)Nc1ncc2c(OC3CCOCC3)ncc(-c3cnn([C@@H]4CCN(C)C4)c3)c2n1` [Compound 314], the IC50 in assay [1] is 0.1 to 1 µM; in assay [2], 1 to 10 µM.

For the compound `COC[C@H](C)Nc1ncc2c(OC3CCOCC3)ncc([C@H]3CC[C@H](NC(C)=O)CC3)c2n1` [Compound 315], the 50% inhibitory concentration (IC50) in assay [1] was in the range of 0.1 to 1 µM; in assay [2] it was 1 to 10 µM.

`COC[C@H](C)Nc1ncc2c(OC3CCOCC3)ncc([C@H]3CC[C@H](NS(C)(=O)=O)CC3)c2n1` [Compound 316]: the half-inhibitory concentration (IC50) in assay [1] is at most 0.1 µM; in assay [2], 1 to 10 µM.

Turning to `CNS(=O)(=O)N[C@H]1CC[C@H](c2cnc(OC3CCOCC3)c3cnc(N[C@@H](C)COC)nc32)CC1` [Compound 317], the IC50 in assay [1] was at most 0.1 µM; in assay [2], 1 to 10 µM.

`CC(C)Nc1ncc2c(OC3CCOCC3)ncc(-c3cccc(S(=O)(=O)C(C)C)c3)c2n1` [Compound 318]: the IC50 in assay [1] and in assay [2] was 0.1 to 1 µM each time.

For the compound `COC[C@H](C)Nc1ncc2c(OC3CCOCC3)ncc(-c3ccc(CC#N)cc3)c2n1` [Compound 319], the 50% inhibitory concentration (IC50) in assay [1] and in assay [2] was 0.1 to 1 µM in each case.

As to `COC[C@H](C)Nc1ncc2c(OC3CCOCC3)ncc(-c3cccc(C#N)c3)c2n1` [Compound 320], the IC50 in assay [1] is 0.1 to 1 µM; in assay [2], 1 to 10 µM.

With `CC[C@H](C)Nc1ncc2c(O[C@H]3CC[C@H](N)CC3)ncc([C@H]3CC[C@H](O)CC3)c2n1` [Compound 321], the IC50 in assay [1] and in assay [2] was at most 0.1 µM in each case.

Regarding `CN(C)S(=O)(=O)c1cccc(-c2cnc(OC3CCOCC3)c3cnc(NC4(C)CC4)nc23)c1` [Compound 322], the IC50 in assay [1] and in assay [2] was 0.1 to 1 µM throughout.

For the compound `CN1C[C@H](Nc2ncc3c(OC4CCOCC4)ncc([C@H]4CC[C@H](O)CC4)c3n2)CC1=O` [Compound 323], the IC50 in assay [1] and in assay [2] was 1 to 10 µM throughout.

With `CN1C[C@@H](Nc2ncc3c(OC4CCOCC4)ncc([C@H]4CC[C@H](O)CC4)c3n2)CC1=O` [Compound 324], the IC50 in assay [1] and in assay [2] was 1 to 10 µM each time.

In the case of `COC[C@H](C)Nc1ncc2c(OC3CCOCC3)ncc(-c3cccc(C(N)=O)c3)c2n1` [Compound 325], the IC50 in assay [1] and in assay [2] was 1 to 10 µM throughout.

`COC[C@H](C)Nc1ncc2c(OC3CCOCC3)ncc([C@H]3CCCNC3)c2n1` [Compound 326]: the concentration for half-maximal inhibition (IC50) in assay [1] and in assay [2] was 0.1 to 1 µM throughout.

As for `COC[C@H](C)Nc1ncc2c(OC3CCOCC3)ncc([C@@H]3CCCNC3)c2n1` [Compound 327], the concentration for half-maximal inhibition (IC50) in assay [1] and in assay [2] was 1 to 10 µM throughout.

As to `COC[C@H](C)Nc1ncc2c(OC3CCOCC3)ncc(-c3cccc(S(N)(=O)=O)c3)c2n1` [Compound 328], the IC50 was 0.1 to 1 µM in assay [1] and 1 to 10 µM in assay [2].

Regarding `COC[C@H](C)Nc1ncc2c(OC3CCOCC3)ncc([C@H]3CC[C@@](O)(C(F)(F)F)CC3)c2n1` [Compound 329], the IC50 in assay [1] and in assay [2] was 0.1 to 1 µM throughout.

For `COC[C@H](C)Nc1ncc2c(OC3CCOCC3)ncc([C@H]3CC[C@](O)(C(F)(F)F)CC3)c2n1` [Compound 330], the figures for the IC50 in assay [1] and in assay [2] were 0.1 to 1 µM and 1 to 10 µM, respectively.

Turning to `N#Cc1ccc(Nc2ncc3c(OC4CCNCC4)ncc([C@H]4CC[C@H](O)CC4)c3n2)cc1` [Compound 331], the 50% inhibitory concentration (IC50) in assay [1] and in assay [2] was at most 0.1 µM each time.

Take `COC[C@H](C)Nc1ncc2c(OC3CCOCC3)ncc([C@H]3CCCN(C)C3)c2n1` [Compound 332]: the IC50 in assay [1] lay in the range of 0.1 to 1 µM; in assay [2], 1 to 10 µM.

As for `COC[C@H](C)Nc1ncc2c(OC3CCOCC3)ncc([C@@H]3CCCN(C)C3)c2n1` [Compound 333], the IC50 in assay [1] and in assay [2] was 1 to 10 µM in each case.

`COC[C@H](C)Nc1ncc2c(OC3CCOCC3)ncc(-c3cnn([C@H]4CCN(C)C4)c3)c2n1` [Compound 334]: the IC50 is 0.1 to 1 µM in assay [1] and 1 to 10 µM in assay [2].

As to `COC[C@H](C)Nc1ncc2c(OC3CCOCC3)ncc(-c3ccc(CO)cc3)c2n1` [Compound 335], the IC50 in assay [1] was 0.1 to 1 µM; in assay [2], 1 to 10 µM.

For `O[C@H]1CC[C@H](c2cnc(OC3CCOCC3)c3cnc(N[C@H]4CCC(F)(F)C4)nc32)CC1` [Compound 336], the half-maximal inhibitory concentration (IC50) in assay [1] and in assay [2] was 0.1 to 1 µM in each case.

With `COC[C@H](C)Nc1ncc2c(OC3CCOCC3)ncc(-c3ccc(N)nc3)c2n1` [Compound 337], the values for the IC50 in assay [1] and in assay [2] were 0.1 to 1 µM and 1 to 10 µM, respectively.

In the case of `C[C@H](CC(F)(F)F)Nc1ncc2c(OC3CCOCC3)ncc([C@H]3CC[C@H](O)CC3)c2n1` [Compound 338], the 50% inhibitory concentration (IC50) in assay [1] was in the range of 0.1 to 1 µM; in assay [2], 1 to 10 µM.

Consider `CCC1(Nc2ncc3c(OC4CCOCC4)ncc([C@H]4CC[C@H](O)CC4)c3n2)CC1` [Compound 339], for which the IC50 in assay [1] and in assay [2] was 0.1 to 1 µM in each case.

In the case of `CNC(=O)N[C@H]1CC[C@H](c2cnc(OC3CCOCC3)c3cnc(N[C@@H](C)COC)nc32)CC1` [Compound 340], the figures for the IC50 in assay [1] and in assay [2] were 0.1 to 1 µM and 1 to 10 µM, respectively.

On to `CNS(=O)(=O)N1CCC(c2cnc(OC3CCOCC3)c3cnc(N[C@@H](C)COC)nc23)CC1` [Compound 341], for which the figures for the IC50 in assay [1] and in assay [2] were 0.1 to 1 µM and 1 to 10 µM, respectively.

Take `COC[C@H](C)Nc1ncc2c(OC3CCOCC3)ncc(-c3ccnnc3)c2n1` [Compound 342]: the IC50 in assay [1] and in assay [2] was 1 to 10 µM each time.

With `COC[C@H](C)Nc1ncc2c(OC3C[C@H]4CC[C@@H](C3)N4C)ncc([C@H]3CC[C@H](O)CC3)c2n1` (stereo partly drawn) [Compound 343], the IC50 in assay [1] was at most 0.1 µM; in assay [2], 0.1 to 1 µM.

Turning to `COC[C@H](C)Nc1ncc2c(OC3CCN(c4ncccn4)CC3)ncc([C@H]3CC[C@H](O)CC3)c2n1` [Compound 344], the IC50 in assay [1] and in assay [2] was 0.1 to 1 µM throughout.

With `CNC(=O)N1CCC(c2cnc(OC3CCOCC3)c3cnc(N[C@@H](C)COC)nc23)CC1` [Compound 345], the IC50 in assay [1] and in assay [2] was 1 to 10 µM in each case.

`COC[C@H](C)Nc1ncc2c(OC3CCOCC3)ncc(C3CCCCN3)c2n1` (stereo partly drawn) [Compound 346]: the IC50 in assay [1] and in assay [2] was 1 to 10 µM throughout.

Consider `COC[C@H](C)Nc1ncc2c(OC3CCOCC3)ncc(-c3cn[nH]c3)c2n1` [Compound 347], for which the figures for the IC50 in assay [1] and in assay [2] were 0.1 to 1 µM and 1 to 10 µM, respectively.

On to `COC[C@H](C)Nc1ncc2c(C3CC3)ncc([C@H]3CC[C@H](O)CC3)c2n1` [Compound 349], for which the IC50 in assay [1] was at most 0.1 µM; in assay [2], 0.1 to 1 µM.

Turning to `COC[C@H](C)Nc1ncc2c(OC3CCOCC3)ncc(C3CCCCN3C)c2n1` (stereo partly drawn) [Compound 350], the half-maximal inhibitory concentration (IC50) in assay [1] and in assay [2] was 1 to 10 µM in each case.
